Like-named read-outs stand apart in the source and are kept apart here.
Assays:
L. major promastigotes = assay: Annexin V/PI assay on L. major promastigotes; assay type: cell-based, Leishmania major; details: 24 h; NC901 2.5 μM, NC884 2.5 μM, NC2459 312 nM
Protocol: Apoptosis was evaluated using Alexa Fluor® 488 Annexin V/PI Apoptosis Kit (Initrogen™-Life technology, Grand Island, N.Y.). L. major promastigotes and BALB/c mice intraperitoneal macrophages were treated with each compound for 24 h. After exposure, the parasites (5×10^7) and macrophages (5×10^6) were harvested, washed and re-suspended with PBS. The Annexin V/PI staining of cells followed the manufacturer's instructions. Then the samples were analyzed with Beckman Coulter Fc500 flow cytometer (Beckman Coulter, USA). The results were expressed as the number of annexin positive cells per thousand cells counted.

Hs27 human fibroblasts = assay: Viability assay (Alamar Blue) on Hs27 fibroblasts; assay type: cell-based; details: read-out: Mammalian cells IC50 ± SD, Hs27 Fibroblasts
Protocol: Rhesus monkey kidney epithelial cell LLC-MK2 (American Type Culture Collection-ATCC, Manassas, Va. # CCL-7), Hs-27 human fibroblasts (American Type Culture Collection-ATCC, Manassas, Va.), RAW 264.7 murine macrophages (American Type Culture Collection-ATCC, Manassas, Va.) U2-09 human osteoblasts (American Type Culture Collection-ATCC, Manassas, Va. # HTB-99) (American Type Culture Collection-ATCC, Manassas, Va.) cells were cultured in Dulbecco's Modified Eagle's Medium (DMEM), supplemented with 10% inactivated FBS, along with 1% of 10,000 units/ml penicillin and 10 mg/ml streptomycin in 0.9% sodium chloride. Intraperitoneal BALB/c mice macrophages were obtained and cultured in DMEM high-glucose, +L-glu, supplemented with 10% FBS (inactivated). The procedure was performed minimizing the distress and pain for the animals following the NIH guidance and animal protocol approved by UTEP's Institutional Animal Care and Use Committee (IACUC).
Viability assay on mammalian cells and T. cruzi epimastigotes. The cytotoxicity and anti-trypanosomal activity of the NC compounds was tested in human Hs27 fibroblasts (ATCC CRL-1634), LLC-MK2 cells (ATCC CCL-7), RAW 264.7 murine macrophages (ATCC TIB71) (American Type Culture Collection-ATCC, Manassa, Va.), mice intraperitoneal macrophages and in epimastigote forms of T. cruzi Y strain using Alamar Blue assay (Invitrogen—Life Technology, Grand Island, N.Y.). The experiments were performed as described using a range of concentration of 500 μM to 1 nM.
The statistical significance (p-value) of the compound's cytotoxicity was calculated using the General Linear Mixed Model Analysis. This analysis was used to test the linear effect of the logarithm of dose on the logit transformation of the percent survival. The IC50 was obtained as the exponent of the negative ratio of the y-intercept and the slope of the fitted regression line (SAS Software, Version 9.2). […] All experiments had statistical significance determined at p≦0.05(*), p≦0.01(**), and p≦0.001(***).

[1] = tested on: L. major metacyclic promastigotes; assay: Murine model for cutaneous leishmaniasis (footpad infection); assay type: in vivo, BALB/c mice; details: for footpad swelling: 10^5 L. major metacyclic promastigotes, intraperitoneal daily treatment
Protocol: (§1) The in vivo experiments were comprised of four groups of five mice each: (1) infected, but not treated [control for the infection—100 μL of DMSO per day, drug diluent]; (2) treated with NC884, NC901 or NC2459, but not infected with the parasites [control for drug toxicity]; (3) infected with the parasites and treated with amphotericin B (8 mg/kg/day) [reference drug; positive control]; and (4) infected with the parasites and treated with NC884, NC901 or NC2459 [experimental group]. Luciferase expressing metacyclic promastigotes L. major (Freidlin V1) were obtained as described previously. Suspensions of 1×10^5 or 1×10^6 parasites per 50 μl of sterile DMEM (endotoxin-free) were injected with a 30G needle into the left hind footpad of BALB/c mice. Two weeks post-infection the compounds were administered once a day by intraperitoneal route, daily for 14 to 17 days. Twice a week, weights were recorded to monitor toxicity and the thickness of the infected footpad and the non-infected footpad was measured with digital calipers to monitor the progression of the disease. The parasitic load also was evaluated through in vivo imaging using luminescence (Kodak Image Station). The mice were injected intra-peritoneally with 150 mg/kg D-luciferin (Sigma, USA) 10 min before imaging, anesthetized with 1-2% isofluorane in oxygen during imaging and the net intensity emitted from the footpad was quantified using the KODAK Image Station software. Parasite burden was expressed as net intensity emitted from L. major infected footpad lesions normalized against the background fluorescence of uninfected mice. The presence/absence of parasites was confirmed by PCR using L. major methionine aminopeptidase (MetAP1) 1 specific primers: 5′-[…]-3′ (SEQ ID NO:1) and 5′-[…]-3′ (SEQ ID NO:2) on cDNA reverse transcribed from total RNA extracted from footpad lysate obtained by macerating footpad tissue fragments in Trizol (Invitrogen Life Technologies, United States) with the gentleMACS™ Dissociator (Miltenyi Biotec GmbH, Germany) following the manufacturer's protocol.

[2] = Weight and toxicity monitoring in treated infected mice; assay type: in vivo, BALB/c mice; details: for deaths as a result of compound toxicity / weight loss: 10^5 infection experiment; for weight loss: daily IP treatment
Protocol: as §1

[3] = tested on: T. cruzi intracellular amastigotes; assay: High-content imaging infectivity assay, T. cruzi amastigote-infected human osteoblasts; assay type: cell-based, Trypanosoma cruzi; details: for IC50: Trypanosoma cruzi, Osteoblast; for parasite burden / percentage of infected cells, T. cruzi infected mammalian cells: human osteoblasts, 48 h
Protocol: Human osteoblasts were infected with T. cruzi trypomastigotes and were treated with each compound at multiple concentrations for 48 hours.
In vitro evaluation of the NC drug library on infectivity experiments by high-content imaging assay. Mice intraperitoneal macrophages and human osteoblasts were placed in a microplate and infected with the amastigote forms of L. major strain Friedlin clone V1 and T. cruzi Y strain respectably, followed by treatment with NC lead compounds (as shown in Table 1). Briefly, Image acquisition and analyses of the plates were carried out using the BD Pathway 855 high-resolution fluorescence bioimager system (BD Biosciences). Filter sets appropriate for the excitation and emission spectra of Draq5 were utilized. Images from […] (3×3 montage) were acquired per well with a 20× objective. To perform the host cell segmentation and counting of parasites, the BD AttoVision™ v1.6.2 Sub Object analysis was used. Draq5 creates a background, staining the host cell and parasite nucleus, but defining the cytoplasm as well, determining this way the amount of parasites within each mammalian cell. The host cell nucleus was excluded by size difference. Subsequently, the infection index was calculated based on the mean of these triplicate values by multiplying the percentage of infected cells and the constraints used in the HCIA assay that was of 2, 3, 5, and 8 parasites per cell.

[4] = in human osteoblasts, 48 h treatment, read-out: T. cruzi Intracellular Amastigotes IC50

Q: With `CN(C)CC1CCC(CN(C)C)C1=O` (stereo not drawn) [NC884] as the compound, how does the “annexin V binding (apoptosis-like effect) vs 1% DMSO” value (“annexin V binding … vs 1% DMSO” for short) (L. major promastigotes) read?
A: significantly induced an apoptosis-like effect

Q: And the IC50 (Hs27 human fibroblasts)?
A: 16.3 ± 0.17 µM

Q: What about the footpad swelling [1] of the same compound?
A: reduced the footpad swelling similar to that of the positive control

Q: What about the “deaths as a result of compound toxicity” value [2] of the same compound?
A: no mice died

Q: What about the weight loss [2] of the same compound?
A: no significant weight loss

Q: And the IC50 [3, 4]?
A: 987 ± 110 nM

Q: And the “parasite burden / percentage of infected cells, T. cruzi infected mammalian cells” value (shortened to “parasite burden / percentage”) ([3]; 3 or more amastigotes per cell)?
A: significantly reduced the parasite burden

Q: With `CN(C)CC1CCCC(CN(C)C)C1=O` (stereo not drawn) [NC901] as the compound, how does the “annexin V binding … vs 1% DMSO” value (L. major promastigotes) read?
A: significantly induced an apoptosis-like effect

Q: And the IC50 (Hs27 human fibroblasts)?
A: 16 ± 0.12 µM

Q: And the footpad swelling [1]?
A: reduced the footpad swelling similar to that of the positive control

Q: And the “deaths as a result of compound toxicity” value [2]?
A: no mice died

Q: And the weight loss [2]?
A: no significant weight loss

Q: And the IC50 [3, 4]?
A: 301 ± 90 nM

Q: What about the “parasite burden / percentage” value ([3]; 3 or more amastigotes per cell) of the same compound?
A: significantly reduced the parasite burden

Q: For `O=C1/C(=C/c2ccccc2)CN(C(=O)C(=O)N2C/C(=C\c3ccccc3)C(=O)/C(=C/c3ccccc3)C2)C/C1=C\c1ccccc1` [NC2459], which “annexin V binding … vs 1% DMSO” value (L. major promastigotes) is on record?
A: significantly induced an apoptosis-like effect

Q: What about the IC50 (Hs27 human fibroblasts) of the same compound?
A: 10.01 ± 0.09 µM

Q: What about the footpad swelling [1] of the same compound?
A: much lower amount of swelling than all groups

Q: What about the “time until measurable lesions start developing” value ([1]; 10^5 parasites) of the same compound?
A: 6-7 weeks post-infection

Q: And the “mice never developing a lesion” value ([1]; 10^5 parasites, monitored up to twelve weeks post-infection)?
A: one out of the three mice never developed a lesion

Q: What about the “lesion size at 33 days post-infection” value ([1]; 10^6 parasites, 8 mg/kg/day extended treatment, p≦0.05) of the same compound?
A: significantly smaller lesion than all other groups

Q: And the “PCR of L. major MetAP1 gene in footpad” value ([1]; mouse displaying no lesion)?
A: no traces of L. major genomic DNA

Q: What about the “deaths as a result of compound toxicity” value [2] of the same compound?
A: no mice died

Q: What about the weight loss [2] of the same compound?
A: no significant weight loss

Q: What about the “additional weight loss or toxic side effects compared to the control group” value ([2]; 10^6 infection, 8 mg/kg/day extended treatment) of the same compound?
A: did not result in any additional weight loss or toxic side effects

Q: And the IC50 ([3]; 48 hours, 3 or more amastigotes per cell, read-out: IC50, T. cruzi amastigote-infected human osteoblasts)?
A: 227 nM

Q: What about the IC50 [3, 4] of the same compound?
A: 227 ± 40 nM

Q: What about the “parasite burden / percentage” value ([3]; 3 or more amastigotes per cell) of the same compound?
A: significantly reduced the parasite burden
